In article PMC6576746, “Rational discovery of dual-indication multi-target PDE/Kinase inhibitor for precision anti-cancer therapy using structural systems pharmacology” (PLoS Computational Biology, 2019):

What was measured:
Test in all cases: biochemical
Set-up in all cases: DiscoverX KinomeScan competition binding assay across human kinases; per cent of control at 10 and 100 uM
BIKE = biological target: T1, BIKE (Homo sapiens, UniProt Q9NSY1); details: competition binding, % of control
T1 construct: gene BMP2K
Outline: (§1)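 Binding is expressed as %control, normalised between positive and negative control signals. The compound (levosimendan) was tested at 10 μM and 100 μM in the DiscoverX KinomeScan competition binding format against human kinases.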

CDC2L2 = biological target: T2, CDC2L2 (Homo sapiens, UniProt Q9UQ88); details: competition binding, % of control; read-out: Percent Control (100 uM Levosimendan)
T2 construct: gene CDK11A
Outline: as §1

CDKL1 = CDKL1 (Homo sapiens, UniProt Q00532); details: competition binding, % of control
Outline: as §1

EIF2AK1 = EIF2AK1 (Homo sapiens, UniProt Q9BQI3); details: competition binding, % of control; read-out: Percent Control (100 uM Levosimendan)
Outline: as §1

FGFR3(G697C) = FGFR3(G697C) (Homo sapiens, UniProt P22607, G697C); details: competition binding, % of control; read-out: Percent Control (100 uM Levosimendan)
Outline: as §1

GRK2 = GRK2 (Homo sapiens, UniProt P25098); details: competition binding, % of control; read-out: Percent Control (100 uM Levosimendan)
Outline: as §1

LATS2 = LATS2 (Homo sapiens, UniProt Q9NRM7); details: competition binding, % of control; read-out: Percent Control (100 uM Levosimendan)
Outline: as §1

LIMK1 = LIMK1 (Homo sapiens, UniProt P53667); details: competition binding, % of control; read-out: Percent Control (100 uM Levosimendan)
Outline: as §1

MAP3K1 = MAP3K1 (Homo sapiens, UniProt Q13233); details: competition binding, % of control; read-out: Percent Control (100 uM Levosimendan)
Outline: as §1

MAP4K2 = MAP4K2 (Homo sapiens, UniProt Q12851); details: competition binding, % of control; read-out: Percent Control (100 uM Levosimendan)
Outline: as §1

MLK2 = biological target: T3, MLK2 (Homo sapiens, UniProt Q02779); details: competition binding, % of control; read-out: Percent Control (100 uM Levosimendan)
T3 construct: gene MAP3K10
Outline: as §1

MYO3A = MYO3A (Homo sapiens, UniProt Q8NEV4); details: competition binding, % of control; read-out: Percent Control (100 uM Levosimendan)
Outline: as §1

NEK10 = NEK10 (Homo sapiens, UniProt Q6ZWH5); details: competition binding, % of control; read-out: Percent Control (100 uM Levosimendan)
Outline: as §1

PFTAIRE2 = biological target: T4, PFTAIRE2 (Homo sapiens, UniProt Q96Q40); details: competition binding, % of control; read-out: Percent Control (100 uM Levosimendan)
T4 construct: gene CDK15
Outline: as §1

PIK3CA(E545K) = PIK3CA(E545K) (Homo sapiens, UniProt P42336, E545K); details: competition binding, % of control; read-out: Percent Control (100 uM Levosimendan)
Outline: as §1

PRKR = biological target: T5, PRKR (Homo sapiens, UniProt P19525); details: competition binding, % of control; read-out: Percent Control (100 uM Levosimendan)
T5 construct: gene EIF2AK2
Outline: as §1

[1] = biological target: T6, RPS6KA5(Kin.Dom.2-C-terminal) (Homo sapiens, UniProt O75582); details: competition binding, % of control; read-out: Percent Control (100 uM Levosimendan)
T6 construct: Kin.Dom.2-C-terminal
Outline: as §1

SRPK1 = SRPK1 (Homo sapiens, UniProt Q96SB4); details: competition binding, % of control
Outline: as §1

p38-beta = biological target: T7, p38-beta (Homo sapiens, UniProt Q15759); details: competition binding, % of control; read-out: Percent Control (100 uM Levosimendan)
T7 construct: gene MAPK11
Outline: as §1

[2] = read-out: Percent Control (10 uM Levosimendan)
[3] = read-out: Percent Control (100 uM Levosimendan)

Chain of CDKL1 (Q00532 whole entry): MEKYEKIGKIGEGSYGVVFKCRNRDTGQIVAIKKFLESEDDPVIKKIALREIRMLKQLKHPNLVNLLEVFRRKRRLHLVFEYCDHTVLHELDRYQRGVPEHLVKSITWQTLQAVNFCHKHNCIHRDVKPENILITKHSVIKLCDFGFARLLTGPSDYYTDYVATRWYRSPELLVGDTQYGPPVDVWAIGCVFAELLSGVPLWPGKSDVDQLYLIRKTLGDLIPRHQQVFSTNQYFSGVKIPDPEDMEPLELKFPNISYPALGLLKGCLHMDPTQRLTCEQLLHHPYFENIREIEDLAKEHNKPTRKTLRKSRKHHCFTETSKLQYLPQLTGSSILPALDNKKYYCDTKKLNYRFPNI
Chain of SRPK1 (Q96SB4 whole entry): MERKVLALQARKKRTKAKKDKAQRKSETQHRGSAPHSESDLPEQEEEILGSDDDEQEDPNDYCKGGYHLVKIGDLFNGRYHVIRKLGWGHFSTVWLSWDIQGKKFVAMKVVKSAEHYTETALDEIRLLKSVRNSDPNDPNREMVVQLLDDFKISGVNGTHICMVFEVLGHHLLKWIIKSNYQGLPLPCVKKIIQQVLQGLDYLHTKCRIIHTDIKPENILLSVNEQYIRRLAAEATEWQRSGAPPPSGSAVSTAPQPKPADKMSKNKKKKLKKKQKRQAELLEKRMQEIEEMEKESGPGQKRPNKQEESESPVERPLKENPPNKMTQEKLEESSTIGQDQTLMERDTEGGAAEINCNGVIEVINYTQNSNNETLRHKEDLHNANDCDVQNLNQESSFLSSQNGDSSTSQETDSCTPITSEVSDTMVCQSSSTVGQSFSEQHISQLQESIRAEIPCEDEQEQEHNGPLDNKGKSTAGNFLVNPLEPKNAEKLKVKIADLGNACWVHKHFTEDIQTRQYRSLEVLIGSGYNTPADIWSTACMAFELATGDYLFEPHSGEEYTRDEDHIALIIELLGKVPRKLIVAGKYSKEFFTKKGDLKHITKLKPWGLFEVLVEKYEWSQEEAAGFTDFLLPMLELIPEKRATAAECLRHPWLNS
T1 sequence (Q9NSY1 whole entry): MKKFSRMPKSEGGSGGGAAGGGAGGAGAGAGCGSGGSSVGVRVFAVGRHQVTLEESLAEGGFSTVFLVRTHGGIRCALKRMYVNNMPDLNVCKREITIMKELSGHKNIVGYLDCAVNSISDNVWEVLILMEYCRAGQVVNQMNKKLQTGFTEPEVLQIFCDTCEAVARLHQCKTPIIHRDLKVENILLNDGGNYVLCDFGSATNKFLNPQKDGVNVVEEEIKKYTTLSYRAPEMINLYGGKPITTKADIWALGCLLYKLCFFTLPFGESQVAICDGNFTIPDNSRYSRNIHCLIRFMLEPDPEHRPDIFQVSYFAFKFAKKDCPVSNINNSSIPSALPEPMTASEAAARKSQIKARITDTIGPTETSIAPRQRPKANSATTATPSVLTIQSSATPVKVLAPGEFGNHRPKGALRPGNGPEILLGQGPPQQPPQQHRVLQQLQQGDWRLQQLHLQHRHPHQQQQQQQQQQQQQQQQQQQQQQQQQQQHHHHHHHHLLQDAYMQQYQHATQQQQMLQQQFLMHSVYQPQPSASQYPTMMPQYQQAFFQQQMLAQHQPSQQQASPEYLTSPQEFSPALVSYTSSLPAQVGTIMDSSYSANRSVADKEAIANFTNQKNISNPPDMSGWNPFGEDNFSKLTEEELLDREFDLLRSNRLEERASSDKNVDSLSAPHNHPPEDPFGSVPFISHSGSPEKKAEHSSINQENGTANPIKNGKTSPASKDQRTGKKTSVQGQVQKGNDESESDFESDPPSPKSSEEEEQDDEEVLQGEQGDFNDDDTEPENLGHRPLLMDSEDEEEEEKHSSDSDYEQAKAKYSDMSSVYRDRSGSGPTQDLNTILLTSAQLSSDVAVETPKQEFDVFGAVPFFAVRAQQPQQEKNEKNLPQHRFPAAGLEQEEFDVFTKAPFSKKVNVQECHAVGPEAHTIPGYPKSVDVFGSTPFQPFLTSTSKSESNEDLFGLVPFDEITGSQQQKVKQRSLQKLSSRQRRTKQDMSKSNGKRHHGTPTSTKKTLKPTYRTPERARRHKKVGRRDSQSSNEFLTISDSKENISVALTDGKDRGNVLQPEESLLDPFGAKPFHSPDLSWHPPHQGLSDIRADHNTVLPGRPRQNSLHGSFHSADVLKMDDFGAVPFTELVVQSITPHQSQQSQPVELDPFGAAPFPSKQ
Chain of MAP3K1 (Q13233 whole entry): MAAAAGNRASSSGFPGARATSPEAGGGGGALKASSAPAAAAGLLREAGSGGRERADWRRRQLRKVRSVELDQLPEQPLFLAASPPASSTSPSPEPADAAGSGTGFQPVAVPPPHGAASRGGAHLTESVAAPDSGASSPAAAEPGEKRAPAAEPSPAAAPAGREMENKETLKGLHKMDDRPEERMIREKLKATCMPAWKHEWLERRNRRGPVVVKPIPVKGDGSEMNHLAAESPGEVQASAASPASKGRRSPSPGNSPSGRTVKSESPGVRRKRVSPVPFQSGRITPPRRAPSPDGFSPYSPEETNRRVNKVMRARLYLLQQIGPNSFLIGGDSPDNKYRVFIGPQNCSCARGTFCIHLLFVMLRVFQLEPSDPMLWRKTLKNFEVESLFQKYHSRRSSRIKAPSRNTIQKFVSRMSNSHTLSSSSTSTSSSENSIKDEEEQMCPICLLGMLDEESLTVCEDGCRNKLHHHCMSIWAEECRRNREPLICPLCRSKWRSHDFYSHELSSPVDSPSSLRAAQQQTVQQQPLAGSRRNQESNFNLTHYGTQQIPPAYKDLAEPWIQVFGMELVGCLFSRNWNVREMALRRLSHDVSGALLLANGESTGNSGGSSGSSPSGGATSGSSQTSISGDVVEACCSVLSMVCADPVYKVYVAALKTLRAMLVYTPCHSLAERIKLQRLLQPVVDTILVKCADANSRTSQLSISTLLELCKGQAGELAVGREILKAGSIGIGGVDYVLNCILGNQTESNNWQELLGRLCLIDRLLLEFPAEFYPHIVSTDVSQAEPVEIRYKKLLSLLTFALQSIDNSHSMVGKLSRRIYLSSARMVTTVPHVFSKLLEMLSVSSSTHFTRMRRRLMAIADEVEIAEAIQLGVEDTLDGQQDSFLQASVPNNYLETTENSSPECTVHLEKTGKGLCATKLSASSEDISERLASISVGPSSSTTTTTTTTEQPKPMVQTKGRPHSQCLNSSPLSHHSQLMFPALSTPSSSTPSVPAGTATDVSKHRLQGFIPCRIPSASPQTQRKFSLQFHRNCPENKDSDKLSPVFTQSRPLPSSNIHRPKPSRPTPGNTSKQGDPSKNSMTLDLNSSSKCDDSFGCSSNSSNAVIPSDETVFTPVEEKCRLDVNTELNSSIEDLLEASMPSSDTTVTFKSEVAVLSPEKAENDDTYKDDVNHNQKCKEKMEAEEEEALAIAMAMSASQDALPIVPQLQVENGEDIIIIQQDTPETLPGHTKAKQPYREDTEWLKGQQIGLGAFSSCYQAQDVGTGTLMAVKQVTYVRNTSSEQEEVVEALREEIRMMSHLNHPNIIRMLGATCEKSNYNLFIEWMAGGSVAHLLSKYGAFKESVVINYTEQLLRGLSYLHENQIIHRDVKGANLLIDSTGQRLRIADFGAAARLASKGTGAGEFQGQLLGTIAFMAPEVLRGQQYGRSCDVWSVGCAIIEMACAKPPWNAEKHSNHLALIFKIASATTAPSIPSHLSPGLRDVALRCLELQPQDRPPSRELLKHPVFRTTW
Chain of EIF2AK1 (Q9BQI3 whole entry): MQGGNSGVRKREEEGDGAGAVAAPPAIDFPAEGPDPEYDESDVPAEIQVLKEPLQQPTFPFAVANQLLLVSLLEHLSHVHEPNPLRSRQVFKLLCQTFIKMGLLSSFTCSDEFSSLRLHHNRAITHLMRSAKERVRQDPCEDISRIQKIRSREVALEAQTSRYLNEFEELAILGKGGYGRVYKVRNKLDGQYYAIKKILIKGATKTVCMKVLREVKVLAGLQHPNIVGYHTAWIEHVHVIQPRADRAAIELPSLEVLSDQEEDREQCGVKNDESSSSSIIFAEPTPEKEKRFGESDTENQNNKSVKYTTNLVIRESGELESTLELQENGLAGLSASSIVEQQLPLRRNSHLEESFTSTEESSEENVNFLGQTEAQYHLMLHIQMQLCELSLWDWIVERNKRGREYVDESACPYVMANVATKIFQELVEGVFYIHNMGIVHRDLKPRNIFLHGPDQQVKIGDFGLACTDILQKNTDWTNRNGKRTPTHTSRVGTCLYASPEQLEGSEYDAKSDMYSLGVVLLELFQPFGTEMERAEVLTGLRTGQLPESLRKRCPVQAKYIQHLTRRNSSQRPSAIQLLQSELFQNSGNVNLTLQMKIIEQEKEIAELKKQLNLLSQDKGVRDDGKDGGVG
T4 sequence (Q96Q40 whole entry): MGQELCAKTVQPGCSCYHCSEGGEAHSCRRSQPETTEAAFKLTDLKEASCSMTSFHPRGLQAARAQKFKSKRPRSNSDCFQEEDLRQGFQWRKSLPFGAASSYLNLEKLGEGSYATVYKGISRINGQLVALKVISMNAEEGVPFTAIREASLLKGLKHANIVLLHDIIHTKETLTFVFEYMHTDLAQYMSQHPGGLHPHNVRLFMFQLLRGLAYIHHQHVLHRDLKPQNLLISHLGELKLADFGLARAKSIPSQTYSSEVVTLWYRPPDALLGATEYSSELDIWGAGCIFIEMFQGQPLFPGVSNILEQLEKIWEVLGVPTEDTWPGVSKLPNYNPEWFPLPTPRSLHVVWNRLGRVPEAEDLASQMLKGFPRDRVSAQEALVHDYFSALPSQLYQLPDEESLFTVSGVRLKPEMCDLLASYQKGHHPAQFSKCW

C[C@@H]1CC(=O)NN=C1c1ccc(NN=C(C#N)C#N)cc1 [levosimendan]
remaining binding at 10 µM (BIKE; [2]): 47% | remaining binding at 100 µM (BIKE; [3]): 2.2% | remaining binding at 100 µM (CDC2L2): 100% | remaining binding at 10 µM (CDKL1; [2]): 88% | remaining binding at 100 µM (CDKL1; [3]): 47% | remaining binding at 100 µM (EIF2AK1): 100% | remaining binding at 100 µM (FGFR3(G697C)): 80% | remaining binding at 100 µM (GRK2): 100% | remaining binding at 100 µM (LATS2): 100% | remaining binding at 100 µM (LIMK1): 73% | remaining binding at 100 µM (MAP3K1): 100% | remaining binding at 100 µM (MAP4K2): 100% | remaining binding at 100 µM (MLK2): 81% | remaining binding at 100 µM (MYO3A): 97% | remaining binding at 100 µM (NEK10): 100% | remaining binding at 100 µM (PFTAIRE2): 85% | remaining binding at 100 µM (PIK3CA(E545K)): 58% | remaining binding at 100 µM (PRKR): 96% | remaining binding at 100 µM [1]: 100% | remaining binding at 10 µM (SRPK1; [2]): 36% | remaining binding at 100 µM (SRPK1; [3]): 40% | remaining binding at 100 µM (p38-beta): 94%
